# Key:
# Experiment in all cases: Post-Emergent Test II herbicidal activity
# Type in all cases: in vivo
# [1] = system: TRZAS: wheat, spring (Triticum aestivum); details: post-emergence, 336 h, 14 days, read-out: Visual Growth Reduction (%) 14 Days After Application TRZAS
# Method: (§1) Post-Emergent Test II: Seeds or nutlets of the desired test plant species were planted in Sun Gro Metro-Mix® 360 planting mixture, which typically has a pH of 6.0 to 6.8 and an organic matter content of about 30 percent, in plastic pots with a surface area of 64 square centimeters. When required to ensure good germination and healthy plants, a fungicide treatment and/or other chemical or physical treatment was applied. The plants were grown for 7-21 d in a greenhouse with an approximate 15 h photoperiod which was maintained at about 23-29° C. during the day and 22-28° C. during the night. Nutrients and water were added on a regular basis and supplemental lighting was provided with overhead metal halide 1000-Watt lamps as necessary. The plants were employed for testing when they reached the first or second true leaf stage.
# (§2) A weighed amount, determined by the highest rate to be tested, of each test compound was placed in a 25 mL glass vial and was dissolved in 4 mL of a 97:3 v/v mixture of acetone and DMSO to obtain concentrated stock solutions. […] The concentrated stock solutions obtained were diluted with 20 mL of an aqueous mixture containing acetone, water, isopropyl alcohol, DMSO, Atplus 411F crop oil concentrate, and Triton® X-155 surfactant in a 48.5:39:10:1.5:1.0:0.02 v/v ratio to obtain spray solutions containing the highest application rates. Additional application rates were obtained by serial dilution of 12 mL of the high rate solution into a solution containing 2 mL of 97:3 v/v mixture of acetone and DMSO and 10 mL of an aqueous mixture containing acetone, water, isopropyl alcohol, DMSO, Atplus 411F crop oil concentrate, and Triton X®-155 surfactant in a 48.5:39:10:1.5:1.0:0.02 v/v ratio to obtain ½×, ¼×, ⅛× and 1/16× rates of the high rate. Compound requirements are based upon a 12 mL application volume at a rate of 187 liters per hectare (L/ha). Formulated compounds were applied to the plant material with an overhead Mandel track sprayer equipped with 8002E nozzles calibrated to deliver 187 L/ha over an application area of 0.503 square meters at a spray height of 18 inches […] above the average plant canopy height. Control plants were sprayed in the same manner with the solvent blank.
# (§3) The treated plants and control plants were placed in a greenhouse as described above and watered by subirrigation to prevent wash-off of the test compounds. After 14 d, the condition of the test plants as compared with that of the untreated plants was determined visually and scored on a scale of 0 to 100 percent where 0 corresponds to no injury and 100 corresponds to complete kill.
# [2] = system: AMARE: redroot pigweed (Amaranthus retroflexus); details: post-emergence, 336 h, 14 days, read-out: Visual Growth Reduction (%) 14 Days After Application AMARE
# Method: as §1, §2, §3
# [3] = system: HELAN: sunflower (Helianthus annuus); details: post-emergence, 336 h, 14 days, read-out: Visual Growth Reduction (%) 14 Days After Application HELAN
# Method: as §1, §2, §3
# [4] = system: CYPES: yellow nutsedge (Cyperus esculentus); details: post-emergence, 336 h, 14 days, read-out: Visual Growth Reduction (%) 14 Days After Application CYPES
# Method: as §1, §2, §3
# [5] = system: ECHCG: barnyardgrass (Echinochloa crus-galli); details: post-emergence, 336 h, 14 days, read-out: Visual Growth Reduction (%) 14 Days After Application ECHCG
# Method: as §1, §2, §3
# [6] = system: CHEAL: lambsquarters (Chenopodium album); details: post-emergence, 336 h, 14 days, read-out: Visual Growth Reduction (%) 14 Days After Application CHEAL
# Method: as §1, §2, §3
# [7] = system: ORYSA: rice (Oryza sativa); details: post-emergence, 336 h, 14 days, read-out: Visual Growth Reduction (%) 14 Days After Application ORYSA
# Method: as §1, §2, §3
# [8] = system: ZEAMX: maize, corn (Zea mays); details: post-emergence, 336 h, 14 days, read-out: Visual Growth Reduction (%) 14 Days After Application ZEAMX
# Method: as §1, §2, §3
# [9] = system: SETFA: giant foxtail (Setaria faberi); details: post-emergence, 336 h, 14 days, read-out: Visual Growth Reduction (%) 14 Days After Application SETFA
# Method: as §1, §2, §3
# [10] = system: ABUTH: velvetleaf (Abutilon theophrasti); details: post-emergence, 336 h, 14 days, read-out: Visual Growth Reduction (%) 14 Days After Application ABUTH
# Method: as §1, §2, §3
# [11] = system: EPHHL: wild poinsettia (Euphorbia heterophylla); details: post-emergence, 336 h, 14 days, read-out: Visual Growth Reduction (%) 14 Days After Application EPHHL
# Method: as §1, §2, §3
# [12] = system: BRSNN: oilseed rape, canola (Brassica napus); details: post-emergence, 336 h, 14 days, read-out: Visual Growth Reduction (%) 14 Days After Application BRSNN
# Method: as §1, §2, §3
compound,measurement,setting,value
Nc1c(F)c(-c2ccc3nsnc3c2)nc(C(=O)O)c1Cl [Compound 12],pest or weed control at 35 g/ha,[1]; 35 g ai/ha,0 to 29%
same,pest or weed control at 70 g/ha,[1]; 70 g ai/ha,0 to 29%
same,pest or weed control at 140 g/ha,[1]; 140 g ai/ha,0 to 29%
same,pest or weed control at 35 g/ha,[2]; 35 g ai/ha,95 to 100%
same,pest or weed control at 70 g/ha,[2]; 70 g ai/ha,95 to 100%
same,pest or weed control at 140 g/ha,[2]; 140 g ai/ha,95 to 100%
same,pest or weed control at 35 g/ha,[3]; 35 g ai/ha,95 to 100%
same,pest or weed control at 70 g/ha,[3]; 70 g ai/ha,95 to 100%
same,pest or weed control at 140 g/ha,[3]; 140 g ai/ha,95 to 100%
same,pest or weed control at 35 g/ha,[4]; 35 g ai/ha,0 to 29%
same,pest or weed control at 70 g/ha,[4]; 70 g ai/ha,0 to 29%
same,pest or weed control at 140 g/ha,[4]; 140 g ai/ha,0 to 29%
same,pest or weed control at 35 g/ha,[5]; 35 g ai/ha,75 to 84%
same,pest or weed control at 70 g/ha,[5]; 70 g ai/ha,75 to 84%
same,pest or weed control at 140 g/ha,[5]; 140 g ai/ha,85 to 94%
same,pest or weed control at 35 g/ha,[6]; 35 g ai/ha,85 to 94%
same,pest or weed control at 70 g/ha,[6]; 70 g ai/ha,95 to 100%
same,pest or weed control at 140 g/ha,[6]; 140 g ai/ha,95 to 100%
same,pest or weed control at 35 g/ha,[7]; 35 g ai/ha,0 to 29%
same,pest or weed control at 70 g/ha,[7]; 70 g ai/ha,0 to 29%
same,pest or weed control at 140 g/ha,[7]; 140 g ai/ha,0 to 29%
same,pest or weed control at 35 g/ha,[8]; 35 g ai/ha,60 to 74%
same,pest or weed control at 70 g/ha,[8]; 70 g ai/ha,60 to 74%
same,pest or weed control at 140 g/ha,[8]; 140 g ai/ha,75 to 84%
same,pest or weed control at 35 g/ha,[9]; 35 g ai/ha,0 to 29%
same,pest or weed control at 70 g/ha,[9]; 70 g ai/ha,0 to 29%
same,pest or weed control at 140 g/ha,[9]; 140 g ai/ha,75 to 84%
same,pest or weed control at 35 g/ha,[10]; 35 g ai/ha,85 to 94%
same,pest or weed control at 70 g/ha,[10]; 70 g ai/ha,85 to 94%
same,pest or weed control at 140 g/ha,[10]; 140 g ai/ha,85 to 94%
same,pest or weed control at 35 g/ha,[11]; 35 g ai/ha,95 to 100%
same,pest or weed control at 70 g/ha,[11]; 70 g ai/ha,95 to 100%
same,pest or weed control at 140 g/ha,[11]; 140 g ai/ha,95 to 100%
same,pest or weed control at 35 g/ha,[12]; 35 g ai/ha,75 to 84%
same,pest or weed control at 70 g/ha,[12]; 70 g ai/ha,75 to 84%
same,pest or weed control at 140 g/ha,[12]; 140 g ai/ha,75 to 84%

# From US9006250B2, “4-amino-6-(heterocyclic)picolinates and 6-amino-2-(heterocyclic)pyrimidine-4-carboxylates and their use as herbicides” (Dow AgroSciences, LLC, priority 2013, dated 2015)
